Results: article PMC3778407, “Topochemical control of the photodimerization of aromatic compounds by γ-cyclodextrin thioethers in aqueous solution” (Beilstein Journal of Organic Chemistry, 2013)
Converted amounts (≈) assume the structure as drawn. Where two headings read alike, the source gives them in different places.

How the values were obtained:
[1] = cited from earlier work
[2] = Aqueous solubility of guests and solubilization by γ-CD thioethers; assay type: physicochemical; details: read-out: [COU]0 solubility of COU
Protocol: (§1) Because the concentration of the free guest [G]free is determined by two coupled thermodynamic equilibria (Equation 1). The 2-phase solubility equilibrium is expressed by Equation 2 and the equilibrium of complexation by the CD host is formulated in Equation 3. The guest dissolves until the concentration of free guest is equal to the solubility of the guest, [G]0 = [G]free. Consequently, the lower the solubility of the guest in water, the lower the fraction of uncomplexed guests. The lower the concentration of the free guest, the lower the contribution of undesirable and non-specific photodimerization to the total quantum yield, according to Equation 4. Consequently, lowering the aqueous solubility of COU by the addition of salt, taking advantage of the so-called “salting-out effect” [46] appeared to be a plausible way to enhance the reaction selectivity of the syn-HH dimer.
(§2) Photoreaction procedures: Aqueous solutions of the native CDs or γ-CD thioethers (25 mL, 6.0 mM) were added into glass vials containing excess amounts of the guest molecules. To evaluate the salting-out effect on the photo-product distribution of COU, different amounts of sodium sulfate were added to the vials to obtain the desired final salt concentration (Na2SO4 concentration: 0, 0.5, 1.0, and 1.5 M). Sample solutions were thoroughly degassed using sonication. The vials were tightly sealed, protected from light, and magnetically stirred at room temperature. After 72 h, the resulting suspensions were filtered through syringe filters. The concentrations of the reactants in the CD solutions were determined from the UV–vis extinction coefficients at the absorption maxima.

[3] = set-up: method as in PMID 21739610; details: K/10^9 [M^−2]; host/guest 1:2; cited from earlier work
[4] = 1:2 (host/guest) binding constant of COU in γ-CD thioether 2 from solubility measurements
Protocol: as §1
Both effects based on the salt concentration led to a significant reduction in the contribution of the photodimerization of free COU to the total quantum yield Φ in Equation 4. Taking into account the molar fraction of the formation of syn-HH in water [drawing 5] from Table 3 and in the complex [drawing 6] , and assuming the quantum yield for the complex as Φcomplex = 19%, the total molar fraction [drawing 7] was calculated according to Equation 5, which was derived from Equation 4. The concentration of complexed COU, [COU]C, was determined as the increase in the solubility of COU upon the addition of the host. The calculated total quantum yields and molar fractions of the syn-HH isomer, listed in Table 5, are in good agreement with the measured values, listed in Table 4. It also shoes, that the binding constant K, calculated according to the law of mass action for the 1:2 (host/guest) complex, tremendously increases with the salt concentration leading to a strong increase of the complexed portion of COU. In contrast to the previous ANT system, the quantum yield of COU photodimerization increases with the binding const K, because K is much lower for COU than for ANT so that contribution of free COU is not negligible.
as §2, with “The vials were tightly sealed, protected from light, and magnetically stirred at room temperature. After 72 h, the resulting suspensions were filtered through syringe filters.” left out

[5] = set-up: method as in PMID 21739610; details: K/10^6 M^−2; 1:2 host/guest; cited from earlier work

Structure (SMILES): c1ccc2cc3ccccc3cc2c1 [ANT, anthracene]
- solubility of free ANT ([1]; water): 0.0004 mM

Structure (SMILES): O=c1ccc2ccccc2o1 [COU, coumarin]
- solubility at 72 h ([2]; water with Na2SO4, thermodynamic from solid, [Na2SO4] 0.5 M): 8.5 mM (≈ 1240 µg/mL)
- solubility at 72 h ([2]; water with Na2SO4, thermodynamic from solid, [Na2SO4] 1.0 M): 4.7 mM (≈ 687 µg/mL)
- solubility at 72 h ([2]; water with Na2SO4, thermodynamic from solid, [Na2SO4] 1.5 M): 2.6 mM (≈ 380 µg/mL)
- solubility at 72 h ([2]; water, thermodynamic from solid, [Na2SO4] 0.0 M): 15.2 mM (≈ 2220 µg/mL)
- aqueous solubility ([1]; water): 15 mM (≈ 2190 µg/mL)

Structure (SMILES): NCCSC[C@H]1O[C@@H]2O[C@H]3[C@H](O)[C@@H](O)[C@@H](O[C@H]4[C@H](O)[C@@H](O)[C@@H](O[C@H]5[C@H](O)[C@@H](O)[C@@H](O[C@H]6[C@H](O)[C@@H](O)[C@@H](O[C@H]7[C@H](O)[C@@H](O)[C@@H](O[C@H]8[C@H](O)[C@@H](O)[C@@H](O[C@H]9[C@H](O)[C@@H](O)[C@@H](O[C@H]1[C@H](O)[C@H]2O)O[C@@H]9CSCCN)O[C@@H]8CSCCN)O[C@@H]7CSCCN)O[C@@H]6CSCCN)O[C@@H]5CSCCN)O[C@@H]4CSCCN)O[C@@H]3CSCCN [Host 1]
- 1:2 binding constant K of ANT [3]: 22.8 10^9 M^−2
- highest concentration of ANT achieved, [ANT] ([1]; 6 mM solution of host in water): 0.04 mM

Structure (SMILES): O=C(O)CSC[C@H]1O[C@@H]2O[C@H]3[C@H](O)[C@@H](O)[C@@H](O[C@H]4[C@H](O)[C@@H](O)[C@@H](O[C@H]5[C@H](O)[C@@H](O)[C@@H](O[C@H]6[C@H](O)[C@@H](O)[C@@H](O[C@H]7[C@H](O)[C@@H](O)[C@@H](O[C@H]8[C@H](O)[C@@H](O)[C@@H](O[C@H]9[C@H](O)[C@@H](O)[C@@H](O[C@H]1[C@H](O)[C@H]2O)O[C@@H]9CSCC(=O)O)O[C@@H]8CSCC(=O)O)O[C@@H]7CSCC(=O)O)O[C@@H]6CSCC(=O)O)O[C@@H]5CSCC(=O)O)O[C@@H]4CSCC(=O)O)O[C@@H]3CSCC(=O)O [Host 2]
- 1:2 binding constant K of ANT [3]: 7.7 10^9 M^−2
- binding constant K of COU complexed in 2 ([4]; [Na2SO4] 0.0 M, 1:2 host/guest, law of mass action, from solubility measurements): 2 10^3 M^−2
- binding constant K of COU complexed in 2 ([4]; [Na2SO4] 0.5 M): 30 10^3 M^−2
- binding constant K of COU complexed in 2 ([4]; [Na2SO4] 1.0 M): 97 10^3 M^−2
- binding constant K of COU complexed in 2 ([4]; [Na2SO4] 1.5 M): 1000 10^3 M^−2

Structure (SMILES): O=S(=O)(O)CCSC[C@H]1O[C@@H]2O[C@H]3[C@H](O)[C@@H](O)[C@@H](O[C@H]4[C@H](O)[C@@H](O)[C@@H](O[C@H]5[C@H](O)[C@@H](O)[C@@H](O[C@H]6[C@H](O)[C@@H](O)[C@@H](O[C@H]7[C@H](O)[C@@H](O)[C@@H](O[C@H]8[C@H](O)[C@@H](O)[C@@H](O[C@H]9[C@H](O)[C@@H](O)[C@@H](O[C@H]1[C@H](O)[C@H]2O)O[C@@H]9CSCCS(=O)(=O)O)O[C@@H]8CSCCS(=O)(=O)O)O[C@@H]7CSCCS(=O)(=O)O)O[C@@H]6CSCCS(=O)(=O)O)O[C@@H]5CSCCS(=O)(=O)O)O[C@@H]4CSCCS(=O)(=O)O)O[C@@H]3CSCCS(=O)(=O)O [Host 3]
- binding constant K of ACE [5]: 37 10^6 M^−2
- 1:2 binding constant K of ANT [3]: 6.8 10^9 M^−2

Structure (SMILES): CC(SC[C@H]1O[C@@H]2O[C@H]3[C@H](O)[C@@H](O)[C@@H](O[C@H]4[C@H](O)[C@@H](O)[C@@H](O[C@H]5[C@H](O)[C@@H](O)[C@@H](O[C@H]6[C@H](O)[C@@H](O)[C@@H](O[C@H]7[C@H](O)[C@@H](O)[C@@H](O[C@H]8[C@H](O)[C@@H](O)[C@@H](O[C@H]9[C@H](O)[C@@H](O)[C@@H](O[C@H]1[C@H](O)[C@H]2O)O[C@@H]9CSC(C)C(=O)O)O[C@@H]8CSC(C)C(=O)O)O[C@@H]7CSC(C)C(=O)O)O[C@@H]6CSC(C)C(=O)O)O[C@@H]5CSC(C)C(=O)O)O[C@@H]4CSC(C)C(=O)O)O[C@@H]3CSC(C)C(=O)O)C(=O)O (some centres unmarked) [Host 4]
- 1:2 binding constant K of ANT [3]: 3.4 10^9 M^−2

Structure (SMILES): OCC(O)CSC[C@H]1O[C@@H]2O[C@H]3[C@H](O)[C@@H](O)[C@@H](O[C@H]4[C@H](O)[C@@H](O)[C@@H](O[C@H]5[C@H](O)[C@@H](O)[C@@H](O[C@H]6[C@H](O)[C@@H](O)[C@@H](O[C@H]7[C@H](O)[C@@H](O)[C@@H](O[C@H]8[C@H](O)[C@@H](O)[C@@H](O[C@H]9[C@H](O)[C@@H](O)[C@@H](O[C@H]1[C@H](O)[C@H]2O)O[C@@H]9CSCC(O)CO)O[C@@H]8CSCC(O)CO)O[C@@H]7CSCC(O)CO)O[C@@H]6CSCC(O)CO)O[C@@H]5CSCC(O)CO)O[C@@H]4CSCC(O)CO)O[C@@H]3CSCC(O)CO (some centres unmarked) [Host 5]
- 1:2 binding constant K of ANT [3]: 3.7 10^9 M^−2

Structure (SMILES): O=C(O)CCSC[C@H]1O[C@@H]2O[C@H]3[C@H](O)[C@@H](O)[C@@H](O[C@H]4[C@H](O)[C@@H](O)[C@@H](O[C@H]5[C@H](O)[C@@H](O)[C@@H](O[C@H]6[C@H](O)[C@@H](O)[C@@H](O[C@H]7[C@H](O)[C@@H](O)[C@@H](O[C@H]8[C@H](O)[C@@H](O)[C@@H](O[C@H]9[C@H](O)[C@@H](O)[C@@H](O[C@H]1[C@H](O)[C@H]2O)O[C@@H]9CSCCC(=O)O)O[C@@H]8CSCCC(=O)O)O[C@@H]7CSCCC(=O)O)O[C@@H]6CSCCC(=O)O)O[C@@H]5CSCCC(=O)O)O[C@@H]4CSCCC(=O)O)O[C@@H]3CSCCC(=O)O [Host 6]
- binding constant K of ACE [5]: 27 10^6 M^−2
- 1:2 binding constant K of ANT [3]: 6.5 10^9 M^−2

Structure (SMILES): COCCOCCOCCSC[C@H]1O[C@@H]2O[C@H]3[C@H](O)[C@@H](O)[C@@H](O[C@H]4[C@H](O)[C@@H](O)[C@@H](O[C@H]5[C@H](O)[C@@H](O)[C@@H](O[C@H]6[C@H](O)[C@@H](O)[C@@H](O[C@H]7[C@H](O)[C@@H](O)[C@@H](O[C@H]8[C@H](O)[C@@H](O)[C@@H](O[C@H]9[C@H](O)[C@@H](O)[C@@H](O[C@H]1[C@H](O)[C@H]2O)O[C@@H]9CSCCOCCOCCOC)O[C@@H]8CSCCOCCOCCOC)O[C@@H]7CSCCOCCOCCOC)O[C@@H]6CSCCOCCOCCOC)O[C@@H]5CSCCOCCOCCOC)O[C@@H]4CSCCOCCOCCOC)O[C@@H]3CSCCOCCOCCOC [Host 7]
- 1:2 binding constant K of ANT [3]: 7.7 10^9 M^−2
